Test results taken from patent US20240246960A1 (adMare Therapeutics Society, priority 2021, published 2024).

What follows are compounds tested against T1, DNA-PK phosphorylation at Serine 2056 (Homo sapiens, UniProt P78527) (assay: Cellular Assay for Inhibition of DNA-PK Phosphorylation at Serine 2056 (FaDu cells, neocarzinostatin, sandwich ELISA)). Conditions: Table 3.
T1 construct: host or cells: FaDu
Format: cell-based
Protocol: FaDu cells were purchased from ATCC and maintained in MEM alpha medium (Life Technologies, cat. no. 12561) supplemented with 10% fetal bovine serum, and 1% GlutaMAX at 37° C. supplemented with 5% CO2. 50,000 cells were seeded to each well of a 96-well cell culture plate in 50 μL of culture medium and incubated for 16-24 hours. Three-fold serially diluted compounds were prepared in DMSO. Culture media was used to prepare compound treatments to 0.3% DMSO (dimethyl sulphoxide) content. Compound treatments were added to the cells for 1 hour prior incubation, followed by the addition of neocarzinostatin in fresh culture medium to 1 μg/mL final concentration for an additional 2 hours incubation to induce DNA DSBs (double-strand breaks). DMSO controls were incubated with fresh culture medium alone for the additional two hours incubation. The cells were then lysed and frozen at −20° C. Cell lysates were thawed on wet ice and protein concentrations quantified by BCA Protein Assay (Thermo # 23225). Lysis buffer was used to normalize lysates by protein content and all lysates were then investigated by sandwich ELISA by means of DNA-PK-specific antibodies (Abcam ab44815: total DNA-PK; ab124918: phosphoserine-2056 DNA-PK) in sandwich ELISA format on the MSD S600MM platform (MesoScale Discovery). % inhibition was calculated for all data points: =1−(DATA_PT−AVERAGE(DMSO controls))/(AVERAGE(NCS controls)−AVERAGE(DMSO controls)). Logarithm of the molar concentration of compound was plotted against percent inhibition to calculate IC50 values, with curve fit settings for data fit to log(inhibitor) vs. normalized response—Variable slope using curve fit software (GraphPad Prism).

Compound	IC50
N#Cc1cnc(N[C@H]2CC[C@@H](Oc3nc(N4CCOCC4)cc4ncc(O)cc34)CC2)cn1 [LFA1026, 5-[[4-[(3-hydroxy-7-morpholino-1,6-naphthyridin-5-yl)oxy]cyclohexyl]amino]pyrazine-2-carbonitrile]	100 to 1000 nM
COc1cnc(N[C@H]2CC[C@@H](Oc3nc(N4CCOCC4)cc4ncc(NS(C)(=O)=O)cc34)CC2)cn1 [LFA1028, N-[5-[4-[(5-methoxypyrazin-2-yl)amino]cyclohexoxy]-7-morpholino-1,6-naphthyridin-3-yl]methanesulfonamide]	< 100 nM
CS(=O)(=O)Nc1cnc2cc(N3CCOCC3)nc(O[C@H]3CC[C@@H](Nc4nccnc4C(F)(F)F)CC3)c2c1 [LFA1029, N-[7-morpholino-5-[4-[[3-(trifluoromethyl)pyrazin-2-yl]amino]cyclohexoxy]-1,6-naphthyridin-3-yl]methanesulfonamide]	< 100 nM
CS(=O)(=O)Nc1cnc2cc(N3CCOCC3)nc(O[C@H]3CC[C@@H](Nc4cncc(C(F)(F)F)n4)CC3)c2c1 [LFA1030, N-[7-morpholino-5-[4-[[6-(trifluoromethyl)pyrazin-2-yl]amino]cyclohexoxy]-1,6-naphthyridin-3-yl]methanesulfonamide]	100 to 1000 nM
CS(=O)(=O)Nc1cnc2cc(N3CCOCC3)nc(O[C@H]3CC[C@@H](Nc4cncc(C#N)n4)CC3)c2c1 [LFA1031, N-[5-[4-[(6-cyanopyrazin-2-yl)amino]cyclohexoxy]-7-morpholino-1,6-naphthyridin-3-yl]methanesulfonamide]	< 100 nM
CS(=O)(=O)Nc1cnc2cc(N3CCOCC3)nc(O[C@H]3CC[C@@H](Nc4nccnc4C#N)CC3)c2c1 [LFA1032, N-[5-[4-[(3-cyanopyrazin-2-yl)amino]cyclohexoxy]-7-morpholino-1,6-naphthyridin-3-yl]methanesulfonamide]	< 100 nM
CS(=O)(=O)Nc1cnc2cc(N3CCOCC3)nc(O[C@H]3CC[C@@H](Nc4ccccn4)CC3)c2c1 [LFA1034, N-[7-morpholino-5-[4-(2-pyridylamino)cyclohexoxy]-1,6-naphthyridin-3-yl]methanesulfonamide]	< 100 nM
CS(=O)(=O)Nc1cnc2cc(N3CCOCC3)nc(O[C@H]3CC[C@@H](Nc4ccnc(C(F)(F)F)n4)CC3)c2c1 [LFA1035, N-[7-morpholino-5-[4-[[2-(trifluoromethyl)pyrimidin-4-yl]amino]cyclohexoxy]-1,6-naphthyridin-3-yl]methanesulfonamide]	100 to 1000 nM
CS(=O)(=O)Nc1cnc2cc(N3CCOCC3)nc(O[C@H]3CC[C@@H](Nc4cnc(C(F)(F)F)cn4)CC3)c2c1 [LFA1037, N-[7-morpholino-5-[4-[[5-(trifluoromethyl)pyrazin-2-yl]amino]cyclohexoxy]-1,6-naphthyridin-3-yl]methanesulfonamide]	< 100 nM
CS(=O)(=O)Nc1cnc2cc(N3CCOCC3)nc(O[C@H]3CC[C@@H](Nc4nccc(C(F)(F)F)n4)CC3)c2c1 [LFA1044, N-[7-morpholino-5-[4-[[4-(trifluoromethyl)pyrimidin-2-yl]amino]cyclohexoxy]-1,6-naphthyridin-3-yl]methanesulfonamide]	100 to 1000 nM
CS(=O)(=O)Nc1cnc2cc(N3CCOCC3)nc(O[C@H]3CC[C@@H](Nc4cnccn4)CC3)c2c1 [LFA1045, N-[7-morpholino-5-[4-(pyrazin-2-ylamino)cyclohexoxy]-1,6-naphthyridin-3-yl]methanesulfonamide;2,2,2-trifluoroacetic acid]	< 100 nM
CN(C)Cc1cnc(N[C@H]2CC[C@@H](Oc3nc(N4CCOCC4)cc4ncc(NS(C)(=O)=O)cc34)CC2)nc1 [LFA1049, N-[5-[4-[[5-[(dimethylamino)methyl]pyrimidin-2-yl]amino]cyclohexoxy]-7-morpholino-1,6-naphthyridin-3-yl]methanesulfonamide]	< 100 nM
Cc1ccc(N[C@H]2CC[C@@H](Oc3nc(N4CCOCC4)cc4ncc(O)cc34)CC2)nc1 [LFA1051, 5-[4-[(5-methyl-2-pyridyl)amino]cyclohexoxy]-7-morpholino-1,6-naphthyridin-3-ol]	100 to 1000 nM

Results, then the compound that gave them:

IC50	Compound
< 100 nM	COc1cc(C#N)cnc1N[C@H]1CC[C@@H](Oc2nc(N3CCOCC3)cc3ncc(NS(C)(=O)=O)cc23)CC1 [LFA1025, N-[5-[4-[(5-cyano-3-methoxy-2-pyridyl)amino]cyclohexoxy]-7-morpholino-1,6-naphthyridin-3-yl]methanesulfonamide]
100 to 1000 nM	CS(=O)(=O)Nc1cnc2cc(N3CCOCC3)nc(O[C@H]3CC[C@@H](Nc4ccnc(C#N)n4)CC3)c2c1 [LFA1033, N-[5-[4-[(2-cyanopyrimidin-4-yl)amino]cyclohexoxy]-7-morpholino-1,6-naphthyridin-3-yl]methanesulfonamide]
< 100 nM	CS(=O)(=O)Nc1cnc2cc(N3CCOCC3)nc(O[C@H]3CC[C@@H](Nc4cnc(C#N)cn4)CC3)c2c1 [LFA1036, N-[5-[4-[(5-cyanopyrazin-2-yl)amino]cyclohexoxy]-7-morpholino-1,6-naphthyridin-3-yl]methanesulfonamide]
100 to 1000 nM	COc1nc(NC2CCC(Oc3nc(N4CCOCC4)cc4ncc(NS(C)(=O)=O)cc34)CC2)ncc1C#N (stereo not drawn) [LFA1038, N-[5-[4-[(5-cyano-4-methoxy-pyrimidin-2-yl)amino]cyclohexoxy]-7-morpholino-1,6-naphthyridin-3-yl]methanesulfonamide]
< 100 nM	Cc1nc(N[C@H]2CC[C@@H](Oc3nc(N4CCOCC4)cc4ncc(NS(C)(=O)=O)cc34)CC2)ncc1F [LFA1039, N-[5-[4-[(5-fluoro-4-methyl-pyrimidin-2-yl)amino]cyclohexoxy]-7-morpholino-1,6-naphthyridin-3-yl]methanesulfonamide;2,2,2-trifluoroacetic acid]
100 to 1000 nM	COc1nc(N[C@H]2CC[C@@H](Oc3nc(N4CCOCC4)cc4ncc(NS(C)(=O)=O)cc34)CC2)ncc1C [LFA1040, N-[5-[4-[(4-methoxy-5-methyl-pyrimidin-2-yl)amino]cyclohexoxy]-7-morpholino-1,6-naphthyridin-3-yl]methanesulfonamide]
100 to 1000 nM	CN(C)c1ccnc(N[C@H]2CC[C@@H](Oc3nc(N4CCOCC4)cc4ncc(NS(C)(=O)=O)cc34)CC2)n1 [LFA1041, N-[5-[4-[[4-(dimethylamino)pyrimidin-2-yl]amino]cyclohexoxy]-7-morpholino-1,6-naphthyridin-3-yl]methanesulfonamide]
< 100 nM	CS(=O)(=O)Nc1cnc2cc(N3CCOCC3)nc(O[C@H]3CC[C@@H](Nc4nccc(C#N)n4)CC3)c2c1 [LFA1042, N-[5-[4-[(4-cyanopyrimidin-2-yl)amino]cyclohexoxy]-7-morpholino-1,6-naphthyridin-3-yl]methanesulfonamide;2,2,2-trifluoroacetic acid]
< 100 nM	Cc1cc(C#N)nc(N[C@H]2CC[C@@H](Oc3nc(N4CCOCC4)cc4ncc(NS(C)(=O)=O)cc34)CC2)n1 [LFA1043, N-[5-[4-[(4-cyano-6-methyl-pyrimidin-2-yl)amino]cyclohexoxy]-7-morpholino-1,6-naphthyridin-3-yl]methanesulfonamide;2,2,2-trifluoroacetic acid]
< 100 nM	Cc1ccnc(N[C@H]2CC[C@@H](Oc3nc(N4CCOCC4)cc4ncc(NS(C)(=O)=O)cc34)CC2)n1 [LFA1047]
< 100 nM	Cc1cnc(N[C@H]2CC[C@@H](Oc3nc(N4CCOCC4)cc4ncc(NS(C)(=O)=O)cc34)CC2)nc1 [LFA1048, N-[5-[4-[(5-methylpyrimidin-2-yl)amino]cyclohexoxy]-7-morpholino-1,6-naphthyridin-3-yl]methanesulfonamide]
